Values of other authors in patent US11564907B2, “Methods and compositions for the treatment of retinopathy and other ocular diseases” (Lankenau Institute for Medical Research, priority 2014, dated 2023).

System: allogeneic mouse concepti
Details: pregnant mice; Munn et al. (1998), Mellor et al. (2001)

## Cn1cc(C[C@H](N)C(=O)O)c2ccccc21 [1-methyl-tryptophan]
  rejection of allogeneic mouse concepti: could elicit T cell-dependent rejection of allogeneic mouse concepti
